Reference: publication PMC10850501 (Nature Communications, 2024)
Entries after “also recorded” stand apart in the source; their conditions may differ. Read-outs that look alike come from different tables or passages of the source. Peptide text beside a SMILES is read from it.

Legend:
[1] = test system: SARS-CoV-2 live virus (B.1 lineage), Vero E6 cells; format: cell-based
[2] = Cytocompatibility (CCK8); format: cell-based, human; conditions: human, A549 cells, read-out: cytocompatibility, normalized to serum free media; for viability at 6 h, 10 µM: 0.01 mM peptide; for viability at 6 h, 100 µM: 0.1 mM peptide; for viability at 6 h, 1000 µM: 1 mM peptide
Procedure: (§1) Cytocompatibility of the peptides was evaluated at 1, 0.1, and 0.01 mM with A549 cells (ATCC CCL-185) cultured in complete media consisting of 90% F-12K and 10% FBS. The A549 cells were utilized after their first passage and seeded at 10,000 cells/well in a 96-well plate for 24 hours. The conditions were prepared in serum-free A549 media and introduced into the wells for 6 hours, after which the condition media were aspirated, the wells were washed once with PBS, and 10 µL of CCK8 was added to 100 µL of PBS[32]. The plate was incubated for 1 hour and read on a Tecan M200 Infinite plate reader at an absorbance of 450 nm with a reference wavelength of 650 nm. The results were analyzed and normalized to the serum-free media control[28],[32],[76].

[3] = test system: A549 cells; test: Cytocompatibility (CCK8); format: cell-based, human; conditions: human alveolar epithelial A549 cells; 0.01-1 mM
Procedure: as §1

[4] = Acute IV pharmacokinetics; format: in vivo, rat (female Wistar)
Procedure: (§2) Female Wistar rats (225–250 g, 8–12 weeks old) were observed and acclimatized for 2 weeks prior to running the studies. They were housed in a controlled environment with temperature at […] and 40–70% humidity. They were kept in an alternating 12-hour light/dark cycle, and food, and water was provided as pellets ad libitum. Female Wistar Rats were used for the pharmacokinetics and the drug clearance analysis from the blood. The two hydrogels (ESBP2 and ESBP3) at 10 mg/ml concentration were injected into the rats via the lateral tail vein. For subcutaneous implants, the substance was injected between the shoulder blades and above the lumbar vertebrae, 200 μL each, using a 25-gauge needle. The hydrogel bolus was prepared with 0.9% saline and was injected within 1–2 minutes. The volume injected was approximately 1% of the total body weight of the rat, which was calculated prior to the dosing. The initial blood draw was performed for baseline, and the subsequent blood collection was performed from the lateral vein using 25 g butterfly needles.
Rat blood samples were collected at 0, 5, 15, 30 minutes, and 1, 2, 4, 8, and 24 hours post-injection timepoints for Acute PK and were aliquoted out into heparinized tubes to prevent coagulation and stored on top of ice packs. Blood collected in K2EDTA anticoagulant tubes was processed to plasma frozen via centrifugation at 13000 RCF for 10 minutes at 4 °C and stored at −80 °C till analysis using HPLC. The body weight was recorded every day prior to the blood collection.

[5] = Daily repeat IV dosing, 10 days (chronic PK/safety); format: in vivo, rat (female Wistar)
Procedure: as §2
Female Wistar rats (225–250 g, 8–12 weeks old) were weighed and repeatedly dosed (1% by weight) IV with ESBP2 or ESBP3 daily at 10 mg/mL (~3 mM). Rat blood samples were collected daily prior to injection via tail vein. Post 10 days of treatment, animals were allowed to recover for 10 days and then sacrificed. Plasma was stored and analyzed as above. The body weight was recorded every day prior to the blood collection.

[6] = Ultracentrifugation pellet / solid-state NMR of assemblies; format: physicochemical; conditions: 10 mg/mL, 150,000 RCF, 30 minutes, 4 °C
Procedure: To experimentally validate E1:ESBP3 peptide mixtures, solid-state NMR experiments were pursued. ^13C solid-state NMR measurements were conducted using cross-polarization magic angle spinning (^1H-^13C CPMAS) to evaluate sample structural order and structural differences between samples. The peptides were not isotopically enriched, so the ^13C signal was from the 1% natural abundance for ^13C.
After peptide dissolution at 10 mg/mL, the samples were concentrated by ultracentrifugation for 30 minutes in Bruker 3.22 mm NMR rotors at 4 °C and 150,000 RCF in Ultra-clear tubes of SW-41 Ti swinging bucket rotor fitted onto a Beckman Optima XPN-100 centrifuge. A 11.75 T magnet Bruker Avance III HD 500 spectrometer (500 MHz, ^1H NMR Larmor frequency) equipped with a room temperature 3.2 mm Bruker Low-E ^1H/^13C/^15N NMR probe was used for measurements. ^13C chemical shift referencing was conducted using adamantane referenced to tetramethylsilane. 1D ^13C cross-polarization magic angle spinning (CPMAS) spectra were collected using the standard Bruker cp pulse sequence. A 10 kHz magic angle spinning speed was used for all samples. The channels frequency for the optimization of the Hartmann-Hahn condition for ^1H and ^13C are 500.133 MHz and 125.771 MHz, respectively. A recycle delay time of 4 seconds (d1) and dwell time of 5 μs (DW) were used. Acquisition time was set to 10.24 ms. […]

[7] = target: the molecule itself; test: co-sedimentation + other: solid-state NMR (1H-13C CPMAS)
[8] = replicate 1, CCK8, 6 h exposure, absorbance 450 nm

Row | Molecule | viability at 6 h, 10 µM ([2]; replicate 1, CCK8, 6 h) | viability at 6 h, 10 µM ([2]; replicate 2, CCK8, 6 h) | viability at 6 h, 100 µM ([2]; replicate 1, CCK8, 6 h) | viability at 6 h, 100 µM ([2]; replicate 2, CCK8, 6 h) | viability at 6 h, 100 µM ([2]; replicate 3, CCK8, 6 h) | viability at 6 h, 1000 µM [2, 8] | viability at 6 h, 1000 µM ([2]; replicate 2, CCK8, 6 h) | viability at 6 h, 1000 µM ([2]; replicate 3, CCK8, 6 h) | also measured
1 | Ac-ESLSLSLSLSLSLEGSALEEQLKTFLDKFMHELEDLLYQLAL-NH2 [ESBP2] | 94.5% | 98.3% | 129% | 132% | 196% | 117% | 104% | 94.1% | in vitro live virus inhibition, in words [1]: inhibition of live virus; also recorded: significantly improved in vitro live virus inhibition; cytocompatibility, in words [3]: excellent cytocompatibility; eliminated by ([4]; ESBP2 IV bolus through the tail vein, Wistar rats (n=8)): ≤ 8 h; clearance from the circulation (time) ([4]; acute 24-hour single-dose IV bolus PK, rats): 4 to 8 h; Tmax ([4]; female, rat, 10 mg/mL, ESBP2 IV bolus through the tail vein, Wistar rats (n=8), plasma, HPLC, read-out: time of concentration peak (converted)): 30 min; Cmax ([4]; female, rat, plasma, 10 mg/mL, ESBP2 IV bolus, Wistar rats (n=8), at 30 minutes following injection, read-out: observed maximum concentration): 36000 ng/mL; AUC ([4]; female, rat, plasma, 10 mg/mL, ESBP2 IV bolus, Wistar rats (n=8), read-out: area under the curve): 47000 ng·h/mL; repeat IV dosing safety, in words ([5]; daily IV for 10 days, ~1 w% (10 mg/mL), 225-250 g adult rats): no adverse effect; significant changes in body weight (ESBP3 also animal behavior, adverse events, gross organ morphology) compared to carrier ([5]; daily repeated IV dosing for 10 days, rats): no
2 | CC(=O)N[C@@H](CCC(=O)O)C(=O)N[C@@H](CO)C(=O)N[C@@H](CC(C)C)C(=O)N[C@@H](CO)C(=O)N[C@@H](CC(C)C)C(=O)N[C@@H](CO)C(=O)N[C@@H](CC(C)C)C(=O)N[C@@H](CO)C(=O)N[C@@H](CC(C)C)C(=O)N[C@@H](CO)C(=O)N[C@@H](CC(C)C)C(=O)N[C@@H](CO)C(=O)N[C@@H](CC(C)C)C(=O)N[C@@H](CCC(=O)O)C(N)=O [E1] (Ac-ESLSLSLSLSLSLE-NH2) | 117% | 122% | 111% | 147% | 117% | 169% | 195% | 139% | Comparative, Average [1]: 65.5306; live virus plaque inhibition, in words [1]: no major differences; ultracentrifuge pellet (assembly into nanofibers) [6]: centrifuge pellets
3 | Ac-ESLSLSLSLSLSLE-NH2 (also called E-(SL)6-E; E-flanked SAP) [E1 self-assembling peptide (E-SLSLSLSLSLSL-E)] |  |  |  |  |  |  |  |  | binding result [7]: binds
